# Measurements taken from ChEMBL document CHEMBL1201862, “PubChem BioAssay data set” (2004).
# Calls of active or inactive are those of the source.
# Experiments:
# [1] = biological target: Glyceraldehyde-3-phosphate dehydrogenase (Homo sapiens, UniProt P04406)
# [2] = biological target: T1, Alkaline phosphatase, tissue-nonspecific isozyme (Homo sapiens, UniProt P05186); assay: potency against alkaline phosphatase TNAP – biochemical, luminescent, dose response, SAR follow-up (AID 1056)
# T1 sequence (P05186 whole entry): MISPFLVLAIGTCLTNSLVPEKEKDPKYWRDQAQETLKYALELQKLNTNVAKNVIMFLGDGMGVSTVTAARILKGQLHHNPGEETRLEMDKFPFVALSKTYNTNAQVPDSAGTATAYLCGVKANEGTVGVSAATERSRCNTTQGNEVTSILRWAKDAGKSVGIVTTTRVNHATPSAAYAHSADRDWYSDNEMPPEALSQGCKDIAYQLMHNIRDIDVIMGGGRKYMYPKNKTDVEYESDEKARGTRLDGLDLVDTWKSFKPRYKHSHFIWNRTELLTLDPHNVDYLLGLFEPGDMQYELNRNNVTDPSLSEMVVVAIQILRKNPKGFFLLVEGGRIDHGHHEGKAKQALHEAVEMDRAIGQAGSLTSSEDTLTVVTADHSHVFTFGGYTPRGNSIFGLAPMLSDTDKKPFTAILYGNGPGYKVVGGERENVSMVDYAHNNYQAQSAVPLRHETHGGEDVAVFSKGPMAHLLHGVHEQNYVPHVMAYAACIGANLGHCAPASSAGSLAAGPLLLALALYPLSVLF
# Coagulation factor XII = biological target: T2, Coagulation factor XII (Homo sapiens, UniProt P00748); format: functional;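 also: activated factor XIIa alpha cleaving a fluorogenic AMC peptide substrate; inhibitor potency from loss of enzyme activity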
# T2 sequence (P00748 whole entry): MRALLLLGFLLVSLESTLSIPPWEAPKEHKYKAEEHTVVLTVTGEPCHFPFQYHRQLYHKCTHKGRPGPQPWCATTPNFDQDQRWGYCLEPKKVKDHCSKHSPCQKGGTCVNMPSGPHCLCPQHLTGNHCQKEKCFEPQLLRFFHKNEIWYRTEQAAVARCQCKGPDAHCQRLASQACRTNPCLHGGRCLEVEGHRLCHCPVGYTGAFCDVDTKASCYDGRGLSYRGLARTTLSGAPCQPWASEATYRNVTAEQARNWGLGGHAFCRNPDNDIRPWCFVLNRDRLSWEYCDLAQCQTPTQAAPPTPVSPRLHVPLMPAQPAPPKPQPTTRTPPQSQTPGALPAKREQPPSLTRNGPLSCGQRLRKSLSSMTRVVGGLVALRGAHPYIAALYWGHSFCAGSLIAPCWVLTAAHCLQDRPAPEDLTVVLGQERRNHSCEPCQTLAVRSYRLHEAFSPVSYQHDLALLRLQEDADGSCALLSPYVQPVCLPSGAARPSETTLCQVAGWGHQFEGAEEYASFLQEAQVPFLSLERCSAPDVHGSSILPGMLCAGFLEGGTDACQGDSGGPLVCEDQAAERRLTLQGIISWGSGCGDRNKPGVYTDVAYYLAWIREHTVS
# [3] = biological target: T3, DNA dC->dU-editing enzyme APOBEC-3A (Homo sapiens, UniProt P31941); assay: A3A deaminase inhibition for selectivity – biochemical, dose response (AID 504722); format: functional
# [4] = biological target: G-protein coupled receptor 55 (Homo sapiens, UniProt Q9Y2T6); assay: selective activators of receptor GPR55 – imaging, U2OS cells, beta-arrestin-GFP redistribution, primary screen (AID 1961); format: functional
# [5] = biological target: T4, DNA dC->dU-editing enzyme APOBEC-3G (Homo sapiens, UniProt Q9HC16); assay: Dose Response confirmation of small molecule APOBEC3G DNA Deaminase Inhibitors via a fluorescence-based single-stranded DNA deaminase assay. [Related pubchem assays (depositor defined):AID493012, AID493028]; format: functional
# [6] = biological target: T5, Tyrosine-protein phosphatase non-receptor type 7 (Homo sapiens, UniProt P35236); assay: redox-active compounds inhibiting HePTP phosphatase – biochemical, fluorescence, mechanism study (AID 2068); format: functional
# T5 sequence (P35236 whole entry): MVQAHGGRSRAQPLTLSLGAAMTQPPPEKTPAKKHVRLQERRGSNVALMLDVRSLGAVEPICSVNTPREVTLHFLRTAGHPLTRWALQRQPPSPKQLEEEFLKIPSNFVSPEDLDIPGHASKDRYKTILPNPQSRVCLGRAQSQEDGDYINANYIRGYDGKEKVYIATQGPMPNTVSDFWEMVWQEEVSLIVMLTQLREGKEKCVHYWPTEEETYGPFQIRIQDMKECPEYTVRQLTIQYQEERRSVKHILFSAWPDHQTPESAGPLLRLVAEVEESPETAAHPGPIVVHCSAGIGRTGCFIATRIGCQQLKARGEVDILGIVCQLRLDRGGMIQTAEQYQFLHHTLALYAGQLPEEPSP
# [7] = HPDE-C7 pancreatic duct cell viability loss – fluorescence, HTS (AID 430); format: functional, cell-based; conditions: Homo sapiens
# [8] = viability loss of HPDE-C7K cells – cell-based, fluorescence, HTS, primary screen (AID 431); format: functional; conditions: Homo sapiens
# [9] = biological target: T6, Short transient receptor potential channel 4 (Mus musculus, UniProt Q9QUQ5); assay: potentiation of DAMGO-evoked TRPC4 calcium signal – cell-based, HEK293 TRPC4/mu-opioid, Fluo-4 calcium, EC20 DAMGO, dose response (AID 434941); format: functional
# T6 sequence (Q9QUQ5 whole entry): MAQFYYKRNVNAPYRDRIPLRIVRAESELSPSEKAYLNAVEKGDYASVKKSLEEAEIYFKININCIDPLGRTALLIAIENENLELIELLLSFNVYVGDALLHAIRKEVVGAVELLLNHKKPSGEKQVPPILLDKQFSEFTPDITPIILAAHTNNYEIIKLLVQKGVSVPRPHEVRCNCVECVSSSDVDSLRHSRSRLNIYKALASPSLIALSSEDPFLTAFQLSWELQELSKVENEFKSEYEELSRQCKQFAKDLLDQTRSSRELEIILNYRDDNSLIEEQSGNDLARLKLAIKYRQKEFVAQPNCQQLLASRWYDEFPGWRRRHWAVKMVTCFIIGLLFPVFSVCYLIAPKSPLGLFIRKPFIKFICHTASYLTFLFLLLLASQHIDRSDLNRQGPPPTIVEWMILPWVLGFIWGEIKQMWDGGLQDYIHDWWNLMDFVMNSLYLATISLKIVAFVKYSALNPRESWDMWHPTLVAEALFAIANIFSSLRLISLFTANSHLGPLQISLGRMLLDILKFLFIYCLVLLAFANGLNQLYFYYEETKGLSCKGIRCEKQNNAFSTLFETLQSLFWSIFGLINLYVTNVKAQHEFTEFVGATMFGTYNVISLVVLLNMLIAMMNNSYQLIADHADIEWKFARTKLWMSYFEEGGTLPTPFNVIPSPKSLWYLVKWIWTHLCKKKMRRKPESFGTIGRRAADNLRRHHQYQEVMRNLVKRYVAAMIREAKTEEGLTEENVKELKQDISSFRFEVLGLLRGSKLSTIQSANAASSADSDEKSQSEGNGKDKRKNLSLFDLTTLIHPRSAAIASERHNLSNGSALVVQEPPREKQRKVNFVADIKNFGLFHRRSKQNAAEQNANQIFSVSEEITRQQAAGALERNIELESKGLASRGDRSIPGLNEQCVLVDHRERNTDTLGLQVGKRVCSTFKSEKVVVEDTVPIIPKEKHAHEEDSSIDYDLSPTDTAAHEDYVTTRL
# [10] = Luminescence Cell-Based Dose Confirmation HTS to Identify Activators of 5'UTR Stem-Loop Driven Alpha-Synuclein mRNA Translation in H4 Neuroglioblastoma Cells. [Related pubchem assays: 1829 (Project Summary), 1814 (Primary HTS)]; format: functional
# [11] = Luminescence Cell-Based Dose Response HTS to Identify Activators of Luciferase Translation or Activity in H4 […] Cells. [Related pubchem assays: 1829 (Project Summary), 1814 (Primary HTS)]; format: functional
# H4 = assay: Luminescence Cell-Based Dose Response HTS to Identify Activators of 5'UTR Stem-Loop Driven Prion Protein mRNA Translation in H4 Neuroglioblastoma Cells. [Related pubchem assays: 1829 (Project Summary), 1814 (Primary HTS)]; format: functional; conditions: Homo sapiens
# [12] = biological target: T3, DNA dC->dU-editing enzyme APOBEC-3A; assay: Dose Response confirmation of small molecule APOBEC3A DNA Deaminase Inhibitors via a fluorescence-based single-stranded DNA deaminase assay. [Related pubchem assays (depositor defined):AID493011, AID493024]; format: functional
# [13] = biological target: T4, DNA dC->dU-editing enzyme APOBEC-3G; format: functional
# [14] = biological target: T7, Dual specificity protein phosphatase 6 (Rattus norvegicus, UniProt Q64346); format: functional;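 also: confirmatory in vitro dose-response testing of MKP-3 inhibition; recombinant His-tagged MKP-3 made in E. coli BL21 with OMFP substrate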
# T7 sequence (Q64346 whole entry): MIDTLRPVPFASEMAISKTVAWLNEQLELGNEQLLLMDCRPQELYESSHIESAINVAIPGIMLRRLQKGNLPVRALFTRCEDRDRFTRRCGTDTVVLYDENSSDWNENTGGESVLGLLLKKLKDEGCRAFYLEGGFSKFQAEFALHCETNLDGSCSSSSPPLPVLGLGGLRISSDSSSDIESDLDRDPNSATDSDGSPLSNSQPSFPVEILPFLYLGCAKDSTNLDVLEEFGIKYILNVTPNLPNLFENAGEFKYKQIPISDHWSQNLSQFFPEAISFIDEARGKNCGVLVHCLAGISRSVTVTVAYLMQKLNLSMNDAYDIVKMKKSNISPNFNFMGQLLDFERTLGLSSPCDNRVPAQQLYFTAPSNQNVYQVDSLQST
# [15] = biological target: Peroxisome proliferator-activated receptor gamma/Nuclear receptor coactivator 1 (Homo sapiens, UniProt P37231); assay: TR-FRET dose response biochemical High Throughput Screening assay for agonists of the steroid receptor coactivator 1 (SRC-1) recruitment by the peroxisome proliferator-activated receptor gamma (PPAR gamma): non-selective agonists. [Related pubchem assays (depositor defined):AID1300, AID1808, AID504735, AID631]; format: protein assay
# [16] = biological target: Peroxisome proliferator-activated receptor gamma/Nuclear receptor coactivator 3 (Homo sapiens, UniProt P37231); assay: TR-FRET dose response biochemical High Throughput Screening assay for agonists of the steroid receptor coactivator 3 (SRC-3) recruitment by the peroxisome proliferator-activated receptor gamma (PPAR gamma): non-selective agonists. [Related pubchem assays: 1301 (Confirmation screen.), 1048 (Primary screen.)]; format: functional
# [17] = biological target: Peroxisome proliferator-activated receptor gamma/Nuclear receptor coactivator 2 (Homo sapiens, UniProt P37231); assay: TR-FRET dose response biochemical High Throughput Screening assay for agonists of the steroid receptor coactivator 2 (SRC-2) recruitment by the peroxisome proliferator-activated receptor gamma (PPAR gamma): non-selective agonists. [Related pubchem assays: 1297, 1032 ]; format: functional
# [18] = biological target: Induced myeloid leukemia cell differentiation protein Mcl-1 (Homo sapiens, UniProt Q07820); format: functional
# [19] = viability loss in HeLa cells – cytotoxicity control for MgcRacGAP inhibitor project, dose response (AID 624300); format: functional
# [20] = biological target: T8, Rac GTPase-activating protein 1 (Homo sapiens, UniProt Q9H0H5); assay: blockers of MgcRacGAP-driven Rac1 GTP hydrolysis – biochemical, ADP Hunter fluorescence, primary and confirmatory, confirmation (AID 624330); format: functional
# T8 sequence (Q9H0H5 whole entry): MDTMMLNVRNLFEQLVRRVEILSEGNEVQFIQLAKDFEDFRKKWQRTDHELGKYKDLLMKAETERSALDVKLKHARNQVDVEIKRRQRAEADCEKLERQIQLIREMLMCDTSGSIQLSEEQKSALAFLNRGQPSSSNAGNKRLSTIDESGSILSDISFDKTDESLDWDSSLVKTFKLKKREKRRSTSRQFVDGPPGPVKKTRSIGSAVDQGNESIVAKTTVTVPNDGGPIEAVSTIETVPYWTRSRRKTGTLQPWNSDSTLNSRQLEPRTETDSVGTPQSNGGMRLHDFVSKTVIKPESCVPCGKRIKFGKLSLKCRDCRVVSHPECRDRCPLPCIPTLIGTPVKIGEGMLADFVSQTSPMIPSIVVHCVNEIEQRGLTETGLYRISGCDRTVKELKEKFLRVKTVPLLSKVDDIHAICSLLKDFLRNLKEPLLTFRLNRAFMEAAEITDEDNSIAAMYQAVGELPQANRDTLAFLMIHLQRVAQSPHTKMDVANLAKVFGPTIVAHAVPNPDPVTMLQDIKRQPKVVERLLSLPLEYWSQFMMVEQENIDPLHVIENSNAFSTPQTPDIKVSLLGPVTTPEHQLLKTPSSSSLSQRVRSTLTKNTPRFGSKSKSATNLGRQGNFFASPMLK
# T3 sequence (P31941 whole entry): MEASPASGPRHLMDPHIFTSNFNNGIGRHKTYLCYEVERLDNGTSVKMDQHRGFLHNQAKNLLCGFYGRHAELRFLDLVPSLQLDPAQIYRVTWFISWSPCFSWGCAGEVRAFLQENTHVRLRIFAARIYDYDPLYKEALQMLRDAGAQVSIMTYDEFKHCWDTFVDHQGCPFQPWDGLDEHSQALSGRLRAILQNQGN
# T4 sequence (Q9HC16 whole entry): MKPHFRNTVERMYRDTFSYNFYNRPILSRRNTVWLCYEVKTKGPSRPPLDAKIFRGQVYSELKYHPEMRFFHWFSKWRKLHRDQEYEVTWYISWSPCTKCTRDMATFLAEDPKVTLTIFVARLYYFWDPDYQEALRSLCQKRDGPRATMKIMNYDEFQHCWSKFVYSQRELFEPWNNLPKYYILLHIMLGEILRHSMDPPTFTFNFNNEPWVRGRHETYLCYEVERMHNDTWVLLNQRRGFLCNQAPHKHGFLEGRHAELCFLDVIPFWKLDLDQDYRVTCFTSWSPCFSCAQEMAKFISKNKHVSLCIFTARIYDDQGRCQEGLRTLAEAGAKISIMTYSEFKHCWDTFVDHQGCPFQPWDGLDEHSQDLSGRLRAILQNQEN
# Sequence of G-protein coupled receptor 55 (Q9Y2T6 whole entry): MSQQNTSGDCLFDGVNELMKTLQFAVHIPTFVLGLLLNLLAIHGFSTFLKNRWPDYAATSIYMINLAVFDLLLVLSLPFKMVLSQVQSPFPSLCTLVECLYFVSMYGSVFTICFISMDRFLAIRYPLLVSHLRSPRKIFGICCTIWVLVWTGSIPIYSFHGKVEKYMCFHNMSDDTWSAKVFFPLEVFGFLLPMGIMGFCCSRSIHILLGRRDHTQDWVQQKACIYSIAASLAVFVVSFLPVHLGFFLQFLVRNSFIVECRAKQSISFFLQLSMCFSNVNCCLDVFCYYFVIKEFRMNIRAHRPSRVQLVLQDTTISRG
# Sequence of Peroxisome proliferator-activated receptor gamma/Nuclear receptor coactivator 2 (P37231 whole entry): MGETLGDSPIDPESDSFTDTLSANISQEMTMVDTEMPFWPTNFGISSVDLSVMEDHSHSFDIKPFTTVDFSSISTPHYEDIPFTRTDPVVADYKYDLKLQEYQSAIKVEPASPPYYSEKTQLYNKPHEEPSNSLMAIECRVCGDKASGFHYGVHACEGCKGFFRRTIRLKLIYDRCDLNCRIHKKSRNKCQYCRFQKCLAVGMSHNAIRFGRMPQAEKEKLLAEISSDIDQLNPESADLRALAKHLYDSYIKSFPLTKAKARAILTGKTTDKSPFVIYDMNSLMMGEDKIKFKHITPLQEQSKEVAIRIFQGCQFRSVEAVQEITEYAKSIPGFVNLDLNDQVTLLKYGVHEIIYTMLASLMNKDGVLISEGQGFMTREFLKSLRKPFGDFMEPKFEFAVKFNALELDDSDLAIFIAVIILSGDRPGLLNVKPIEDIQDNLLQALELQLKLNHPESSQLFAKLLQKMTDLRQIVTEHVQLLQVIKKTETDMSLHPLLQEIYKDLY
# Sequence of Peroxisome proliferator-activated receptor gamma/Nuclear receptor coactivator 2 (Q15596 whole entry, further chain): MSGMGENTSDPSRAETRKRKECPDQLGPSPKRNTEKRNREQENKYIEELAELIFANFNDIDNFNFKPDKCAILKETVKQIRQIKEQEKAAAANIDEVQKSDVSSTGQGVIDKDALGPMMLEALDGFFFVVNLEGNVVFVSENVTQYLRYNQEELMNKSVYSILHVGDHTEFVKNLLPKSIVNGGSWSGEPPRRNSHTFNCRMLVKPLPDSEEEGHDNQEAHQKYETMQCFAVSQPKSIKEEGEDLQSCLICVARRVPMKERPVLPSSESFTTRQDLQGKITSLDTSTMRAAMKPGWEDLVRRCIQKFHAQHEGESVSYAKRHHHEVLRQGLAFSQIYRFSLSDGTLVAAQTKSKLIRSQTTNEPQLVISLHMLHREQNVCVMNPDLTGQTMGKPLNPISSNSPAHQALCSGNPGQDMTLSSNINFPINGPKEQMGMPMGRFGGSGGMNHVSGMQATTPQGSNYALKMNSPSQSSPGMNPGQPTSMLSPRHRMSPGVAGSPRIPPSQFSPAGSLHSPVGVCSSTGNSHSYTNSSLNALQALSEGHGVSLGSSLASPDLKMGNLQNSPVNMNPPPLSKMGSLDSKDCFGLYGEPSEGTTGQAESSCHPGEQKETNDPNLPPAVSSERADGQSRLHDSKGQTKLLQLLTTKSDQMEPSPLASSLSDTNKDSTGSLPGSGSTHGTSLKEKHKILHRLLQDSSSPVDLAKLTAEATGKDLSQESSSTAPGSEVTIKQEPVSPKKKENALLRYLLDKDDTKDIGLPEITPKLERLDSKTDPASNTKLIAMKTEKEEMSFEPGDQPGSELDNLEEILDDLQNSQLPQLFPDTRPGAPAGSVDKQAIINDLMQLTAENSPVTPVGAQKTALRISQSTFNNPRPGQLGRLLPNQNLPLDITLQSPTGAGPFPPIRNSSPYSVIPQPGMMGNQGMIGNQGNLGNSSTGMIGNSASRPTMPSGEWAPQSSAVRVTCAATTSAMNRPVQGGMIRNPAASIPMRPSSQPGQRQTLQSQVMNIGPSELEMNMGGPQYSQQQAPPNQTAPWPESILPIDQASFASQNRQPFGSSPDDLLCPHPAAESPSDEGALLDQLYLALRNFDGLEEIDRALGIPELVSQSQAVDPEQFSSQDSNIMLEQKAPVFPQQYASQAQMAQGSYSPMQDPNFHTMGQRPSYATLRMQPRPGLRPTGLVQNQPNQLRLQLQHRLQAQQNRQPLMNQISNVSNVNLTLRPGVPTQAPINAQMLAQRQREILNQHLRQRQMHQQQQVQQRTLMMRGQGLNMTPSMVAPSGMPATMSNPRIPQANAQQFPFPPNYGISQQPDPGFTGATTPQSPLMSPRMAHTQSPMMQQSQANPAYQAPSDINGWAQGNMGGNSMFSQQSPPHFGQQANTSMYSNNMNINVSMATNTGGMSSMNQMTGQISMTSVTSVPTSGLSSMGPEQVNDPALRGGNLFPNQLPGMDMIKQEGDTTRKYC
# Sequence of Peroxisome proliferator-activated receptor gamma/Nuclear receptor coactivator 1 (P37231 whole entry): as the sequence (P37231 whole entry) above
# Sequence of Peroxisome proliferator-activated receptor gamma/Nuclear receptor coactivator 1 (Q15788 whole entry, further chain): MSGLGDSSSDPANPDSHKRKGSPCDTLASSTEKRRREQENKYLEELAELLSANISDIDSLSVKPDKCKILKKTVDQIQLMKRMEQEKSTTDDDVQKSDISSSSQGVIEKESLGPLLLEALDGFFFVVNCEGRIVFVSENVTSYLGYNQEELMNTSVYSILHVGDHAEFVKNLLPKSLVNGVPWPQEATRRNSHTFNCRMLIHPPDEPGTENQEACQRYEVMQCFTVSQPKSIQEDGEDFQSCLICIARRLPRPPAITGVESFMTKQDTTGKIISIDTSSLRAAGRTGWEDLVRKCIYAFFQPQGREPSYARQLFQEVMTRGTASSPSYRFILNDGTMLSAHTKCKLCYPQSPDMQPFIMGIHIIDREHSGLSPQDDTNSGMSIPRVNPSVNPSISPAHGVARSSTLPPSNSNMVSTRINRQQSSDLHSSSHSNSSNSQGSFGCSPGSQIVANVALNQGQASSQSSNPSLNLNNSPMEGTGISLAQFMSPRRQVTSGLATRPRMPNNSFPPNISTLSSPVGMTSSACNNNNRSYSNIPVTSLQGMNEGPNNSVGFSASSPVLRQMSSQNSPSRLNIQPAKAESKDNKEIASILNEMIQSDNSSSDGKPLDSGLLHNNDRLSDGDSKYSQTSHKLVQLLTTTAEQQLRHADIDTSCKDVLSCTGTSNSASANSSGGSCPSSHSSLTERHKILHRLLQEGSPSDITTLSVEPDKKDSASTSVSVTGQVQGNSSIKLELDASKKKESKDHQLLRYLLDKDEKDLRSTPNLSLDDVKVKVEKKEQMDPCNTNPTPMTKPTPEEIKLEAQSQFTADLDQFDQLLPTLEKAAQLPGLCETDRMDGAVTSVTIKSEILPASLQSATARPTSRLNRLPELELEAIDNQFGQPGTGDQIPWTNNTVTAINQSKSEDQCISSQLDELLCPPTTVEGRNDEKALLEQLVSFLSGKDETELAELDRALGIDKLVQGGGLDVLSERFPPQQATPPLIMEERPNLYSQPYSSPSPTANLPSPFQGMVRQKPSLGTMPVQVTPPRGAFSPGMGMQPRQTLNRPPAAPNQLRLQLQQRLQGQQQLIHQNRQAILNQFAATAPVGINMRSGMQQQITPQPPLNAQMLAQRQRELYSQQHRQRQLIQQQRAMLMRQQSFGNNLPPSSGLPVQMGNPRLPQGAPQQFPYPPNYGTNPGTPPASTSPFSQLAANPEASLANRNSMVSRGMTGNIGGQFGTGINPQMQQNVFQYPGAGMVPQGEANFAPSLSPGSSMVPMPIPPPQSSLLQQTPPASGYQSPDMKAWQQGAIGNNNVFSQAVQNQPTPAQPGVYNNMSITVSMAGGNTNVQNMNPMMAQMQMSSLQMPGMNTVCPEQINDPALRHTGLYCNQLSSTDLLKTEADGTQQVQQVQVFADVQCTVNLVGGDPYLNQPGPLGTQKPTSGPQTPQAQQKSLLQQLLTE
structure (smiles),measurement,setting,value
O=C1c2c(Cl)c(Cl)c(Cl)c(Cl)c2C(=O)N1c1nc(Cc2ccccc2)n[nH]1,IC50,[1],> 100 µM (not active)
same,IC50,[2],> 100 µM (inactive)
COC(=O)/C(=C/Nc1ccccc1)[N+](=O)[O-],IC50,Coagulation factor XII,> 50 µM (inactive)
CCn1c(S)nnc1CSc1nc2ccccc2s1,IC50,[3],> 100 µM (inactive)
same,EC50,[4],> 32 µM (inactive)
same,IC50,[5],3.73 µM (active)
CC1(C)CC2CC(C)(CN2C(=O)Nc2ccc3nc(-c4ccco4)c(-c4ccco4)nc3c2)C1 (stereo not drawn),IC50,[6],2.92 µM (active)
Cc1[nH]c2ccc(-c3nnc(SCC(=O)NCc4ccco4)n3Cc3ccccc3)cc2c1C,EC50,[4],5.78 µM (active)
CCCCCCn1c(N2CCN(c3ccccc3)CC2)nc2c1c(=O)n(C)c(=O)n2C,EC50,[7],> 20 µM (not active)
same,EC50,[8],> 20 µM (not active)
same,EC50,[9],6.68 µM (active)
CC(C)(C)C(=O)c1cn(CC(=O)NCc2ccco2)c2ccccc12,EC50,[10],14.9 µM (active)
same,EC50,[11],15.9 µM (active)
same,EC50,H4,13.2 µM (active)
same,IC50,[12],3.56 µM (active)
same,IC50,[13],4.75 µM (active)
COc1cc(C(=S)NCc2ccc(Cl)c(C)c2)ccc1O,IC50,[6],3.06 µM (active)
same,IC50,[14],> 100 µM (inactive)
O=C(CCN1CCN(Cc2ccccc2)CC1)Nc1ccc(OCc2ccccc2)cc1,EC50,[9],0.13 µM (active)
COC(=O)CNc1nnc(S)nc1O,EC50,[15],1.61 µM (active)
same,EC50,[16],53.6 µM (not active)
same,EC50,[17],2.15 µM (active)
O=C1NC(=S)N(C2CC2)C(=O)/C1=C/c1ccc2c(c1)CCN2CCCCl,IC50,[18],2.61 µM (active)
same,IC50,Coagulation factor XII,> 50 µM (inactive)
same,CC50,[19],85.4 µM (active)
same,IC50,[20],95.6 µM (active)
CCCC[N@+]12CC[C@H](CC1)C(=C(c1ccccc1)c1ccccc1)C2,IC50,[12],2.16 µM (active)
same,IC50,[13],2.19 µM (active)
